# According to US12433865B2, “Compositions comprising PGI2-receptor agonists and processes for the preparation thereof” (Arena Pharmaceuticals, Inc., priority 2018, dated 2025):
# Test: Release (dissolution) profile of capsules, USP Apparatus 2 (paddle)
# Type: physicochemical
# Conditions: 0.04 mg capsule; for Release rate (percentage of Compound 1 released over time): Poloxamer 188:food grade GMS 50:50
# Excerpt: USP Apparatus 2 (Paddle Apparatus) is described, for example, in the United States Pharmacopeial Convention, Feb. 1, 2012, Chapter <711> (“Dissolution”), incorporated by reference herein in its entirety. See http://www.usp.org/sites/default/files/usp_pdf/EN/USPNF/revisions/m99470-gc_711.pdf. The assembly from Apparatus 1 is used, except that a paddle formed from a blade and a shaft is used as the stirring element. The shaft is positioned so that its axis is not more than 2 mm from the vertical axis of the vessel at any point and rotates smoothly without significant wobble that could affect the results. The vertical center line of the blade passes through the axis of the shaft so that the bottom of the blade is flush with the bottom of the shaft. A distance of 25±2 mm between the bottom of the blade and the inside bottom of the vessel is maintained during the test. The metallic or suitably inert, rigid blade and shaft comprise a single entity. A suitable two-part detachable design may be used provided the assembly remains firmly engaged during the test. The paddle blade and shaft may be coated with a suitable coating so as to make them inert. The dosage unit is allowed to sink to the bottom of the vessel before rotation of the blade is started. A small, loose piece of nonreactive material, such as not more than a few turns of wire helix, may be attached to dosage units that would otherwise float. Other validated sinker devices may be used.
# Unless otherwise specified, the release profiles for capsules were measured using USP Apparatus 2 (paddle).
# All release profiles disclosed in Tables 3c-3p were measured with USP Apparatus 2 (paddle) at 50 rpm in 500 mL of aqueous sodium phosphate at a concentration of 0.05 M (pH=6.8). The values in a given table relate to capsules obtained from the same batch. Values shown represent mean values over a number of dissolution tests (“n” in each table) in each case.
smiles,measurement,setting,value
"O=C(O)COC[C@H]1CC[C@H](COC(=O)N(c2ccccc2)c2ccc(Cl)cc2)CC1 [Compound 1, 2-(((1r,4r)-4-(((4-chlorophenyl)(phenyl)carbamoyloxy)methyl)cyclohexyl)methoxy)acetic acid]",release profile post-curing,"Poloxamer 188:food grade GMS 50:50, cured 18 hours, one week, two weeks and four weeks post-curing (FIG. 6)",remained substantially the same
same,Release rate (percentage of Compound 1 released over time),"1 wk (40° C.) storage, 30 min",11.1%
same,Release rate (percentage of Compound 1 released over time),"1 wk (40° C.) storage, 60 min",22.6%
same,Release rate (percentage of Compound 1 released over time),"1 wk (40° C.) storage, 120 min",40.1%
same,Release rate (percentage of Compound 1 released over time),"1 wk (40° C.) storage, 180 min",59.2%
same,Release rate (percentage of Compound 1 released over time),"1 wk (40° C.) storage, 240 min",71.8%
same,Release rate (percentage of Compound 1 released over time),"1 wk (40° C.) storage, 360 min",88.4%
same,Release rate (percentage of Compound 1 released over time),"1 wk (40° C.) storage, 480 min",92.2%
same,Release rate (percentage of Compound 1 released over time),"1 wk (40° C.) storage, 600 min",96.2%
same,Release rate (percentage of Compound 1 released over time),"1 wk (40° C.) storage, 720 min",95.3%
same,Release rate (percentage of Compound 1 released over time),"1 wk (40° C.) storage, 735 min",96.1%
same,Release rate (percentage of Compound 1 released over time),"2 wks (40° C.) storage, 30 min",10.8%
same,Release rate (percentage of Compound 1 released over time),"2 wks (40° C.) storage, 60 min",18.3%
same,Release rate (percentage of Compound 1 released over time),"2 wks (40° C.) storage, 120 min",36.8%
same,Release rate (percentage of Compound 1 released over time),"2 wks (40° C.) storage, 180 min",52.9%
same,Release rate (percentage of Compound 1 released over time),"2 wks (40° C.) storage, 240 min",67.4%
same,Release rate (percentage of Compound 1 released over time),"2 wks (40° C.) storage, 360 min",83.3%
same,Release rate (percentage of Compound 1 released over time),"2 wks (40° C.) storage, 480 min",90.3%
same,Release rate (percentage of Compound 1 released over time),"2 wks (40° C.) storage, 600 min",93.8%
same,Release rate (percentage of Compound 1 released over time),"2 wks (40° C.) storage, 720 min",93.7%
same,Release rate (percentage of Compound 1 released over time),"2 wks (40° C.) storage, 735 min",94.3%
same,Release rate (percentage of Compound 1 released over time),"4 wks (40° C.) storage, 30 min",7.3%
same,Release rate (percentage of Compound 1 released over time),"4 wks (40° C.) storage, 60 min",17.7%
same,Release rate (percentage of Compound 1 released over time),"4 wks (40° C.) storage, 120 min",37.4%
same,Release rate (percentage of Compound 1 released over time),"4 wks (40° C.) storage, 180 min",54.6%
same,Release rate (percentage of Compound 1 released over time),"4 wks (40° C.) storage, 240 min",70.3%
same,Release rate (percentage of Compound 1 released over time),"4 wks (40° C.) storage, 360 min",87.5%
same,Release rate (percentage of Compound 1 released over time),"4 wks (40° C.) storage, 480 min","90,9%"
same,Release rate (percentage of Compound 1 released over time),"4 wks (40° C.) storage, 600 min",93.2%
same,Release rate (percentage of Compound 1 released over time),"4 wks (40° C.) storage, 720 min",95.0%
same,Release rate (percentage of Compound 1 released over time),"4 wks (40° C.) storage, 735 min",94.3%
same,Release rate (percentage of Compound 1 released over time),"18 hrs (50° C.) curing, 30 min",14.3%
same,Release rate (percentage of Compound 1 released over time),"18 hrs (50° C.) curing, 60 min",21.8%
same,Release rate (percentage of Compound 1 released over time),"18 hrs (50° C.) curing, 120 min",39.9%
same,Release rate (percentage of Compound 1 released over time),"18 hrs (50° C.) curing, 180 min",56.3%
same,Release rate (percentage of Compound 1 released over time),"18 hrs (50° C.) curing, 240 min",72.6%
same,Release rate (percentage of Compound 1 released over time),"18 hrs (50° C.) curing, 360 min",89.2%
same,Release rate (percentage of Compound 1 released over time),"18 hrs (50° C.) curing, 480 min",93.5%
same,Release rate (percentage of Compound 1 released over time),"18 hrs (50° C.) curing, 600 min",95.7%
same,Release rate (percentage of Compound 1 released over time),"18 hrs (50° C.) curing, 720 min",96.9%
same,Release rate (percentage of Compound 1 released over time),"18 hrs (50° C.) curing, 735 min",95.6%
same,Release rate (percentage of Compound 1 released over time),"T = 0 (pre-curing), 30 min",11.0%
same,Release rate (percentage of Compound 1 released over time),"T = 0 (pre-curing), 60 min",18.3%
same,Release rate (percentage of Compound 1 released over time),"T = 0 (pre-curing), 120 min",30.1%
same,Release rate (percentage of Compound 1 released over time),"T = 0 (pre-curing), 180 min",39.6%
same,Release rate (percentage of Compound 1 released over time),"T = 0 (pre-curing), 240 min",48.8%
same,Release rate (percentage of Compound 1 released over time),"T = 0 (pre-curing), 360 min",64.1%
